Assay results taken from article PMC10989010, “A panel of janus kinase inhibitors identified with anti-inflammatory effects protect mice from lethal influenza virus infection” (Antimicrobial Agents and Chemotherapy, 2024).
Structures can show the parent of a compound that is named as a salt.

Columns and labels:
IP-10 = test: cells; assay type: cell-based, human; settings: Homo sapiens, U-937, 72 h, read-out: IC50 IP-10
MCP1 = test: cells; assay type: cell-based, human; settings: Homo sapiens, U-937, 72 h, read-out: IC50 MCP1
lung tissues = test: Lung tissues histopathology (HE staining) of infected mice; assay type: in vivo; settings: 300 TCID50; 20 mg/kg/d; day 7 p.i.
Method: The H&E staining experiments were performed according to the previous report ([46]). Briefly, all the mouse lung tissues were fixed in 4% paraformaldehyde overnight, embedded in paraffin, and cut into 4 µm sections. The sections were stained with hematoxylin solution, treated with hematoxylin differentiation solution and hematoxylin Scott’s tap water bluing, and rinsed with tap water. The sections were dehydrated in 85% ethanol for 5 minutes, followed by 5 minutes in 95% ethanol, and stained with eosin dye for 5 minutes. After dehydration, all the sections were sealed with neutral gum. Each section was examined under the microscope. The slides were randomly read and reviewed for tissue damage, necrosis, and inflammatory cell infiltration.

[1] = test system: neutrophils and macrophages; test: Flow cytometry of BALF cells of infected mice; assay type: in vivo; settings: 20 mg/kg/d, day 7 p.i.
Method: The mouse was euthanized and affixed onto a surgical plate, followed by disinfection of the neck using 70% ethanol. An incision was made on the neck skin using scissors to expose the trachea. Subsequently, a 0.2 cm incision was created on the trachea with surgical scissors, and a gavage needle was carefully inserted into it. The trachea was tied around the needle using cotton thread to secure the needle in place. Then, sterile PBS solution loaded in a 1 mL syringe was gently injected into the lung. The thorax of the mouse was massaged to facilitate even distribution of the solution before careful aspiration. Following the removal of the syringe from the needle, lavage fluid obtained from this process was transferred to an ice-cooled 1.5 mL tube for further processing or stored at −80℃ for subsequent analysis. Finally, resuspension and staining of cell pellet obtained after centrifugation of lavage fluid for 10 minutes at 1,000 × g and 4℃ were performed for subsequent analysis using flow cytometry ([45]).
BALF samples were washed with FACS (fluorescence-activated cell sorting) buffer (2% BSA in PBS), followed by red blood cell lysis using Red Cell Lysis Buffer (Tiangen, Beijing, China). For the surface staining, cells were stained with the following fluorochrome-labeled antibodies (Biolegend, San Diego, USA): PE-Cy7-conjugated Ly6C (clone HK1.4, dilution 1:200), PE-conjugated CD11b (clone M1/70, dilution 1: 200), APC-conjugated Ly6G (clone 1A8, dilution 1: 200), and FITC-conjugated CD11c (clone N418, dilution 1: 100). Cells were washed with PBS twice and counterstained with 7AAD (Biolegend, San Diego, USA) to differentiate apoptotic and dead cells, then analyzed using a BD FACSVerse Cell Analyzer (BD, New Jersey, USA).

[2] = test system: TNF-α, RANTES, IP-10, IL-10, MIP-1α, IL-8, MCP-1, and IL-6; test: ELISA of pro-inflammatory cytokines and chemokines in BALF of infected mice; assay type: in vivo; settings: 300 TCID50; 20 mg/kg/d; day 7 p.i.; versus placebo
Method: Mouse IL-10 (Cat. No. 431414), IL-6 (Cat. No. 431304), and TNF-α (Cat. No. 430901) ELISA kits were obtained from BioLegend (San Diego, USA). Mouse IL-8 (CME0008), MCP-1 (CME0046), and IP-10 (CME0051) ELISA kits were purchased from 4A Biotech (Beijing, China). Mouse CCL3/MIP-1α (EK261/2-96) ELISA kit was bought from Multi Sciences (Hangzhou, China). Mouse CCL5/RANTES (BSEM-048–96T) ELISA kit was obtained from Biosharp (Hefei, China). The ELISA was conducted by following the manufacturer’s instructions.

[3] = test system: influenza virus-specific IgG; test: Influenza virus-specific IgG in mouse serum (ELISA); assay type: in vivo, BALB/c mice; settings: 50 TCID50 PR8, 20 mg/kg twice daily for 5 days from 3 dpi, versus untreated
Method: The PR8 virus was purified and inactivated using β-Propiolactone (CAS: 57–57-8, MCE) at a 1:3,000 (vol/vol) ratio. The inactivated PR8 virus (2 µg in each well) was then coated onto a 96-well ELISA plate (Corning, USA) and left overnight at 4℃. Afterward, the plate was washed three times and blocked with 5% skimmed milk for 1 hour at 37℃. The plate was washed again three times and then incubated with 100 µL of serial diluted sera at 37 ℃ for 2 hours. Next, the plate was washed three times and incubated with 100 µL of 1,000-fold diluted (horseradish peroxidase) HRP-conjugated affinipure goat ant-mouse IgG (H + L; SA00001-1, Proteintech) at 37℃ for 1 hour. After washing the plate four times, 100 µL of TMB (3, 3', 5, 5'-tetramethylbenzidine) substrate was added to each well until the solutions turned blue, and then 50 µL of 2M H2SO4 was added to stop the reaction. Finally, the absorbance was read at OD450 nm using the Varioskan LUX multimode microplate reader (Thermo Scientific, Waltham, MA, USA) ([47]).

PR8 virus = test: Neutralization assay of mouse sera; assay type: in vivo, BALB/c mice; settings: for neutralizing antibody titer: 50 TCID50 PR8, 20 mg/kg
Method: The neutralization assay was performed to determine the neutralizing titers of sera obtained from mice infected with influenza virus. The procedure involved diluting the sera and subsequently heat-inactivating it at 56℃ for 30 minutes, followed by its combination with 100 TCID50 PR8 virus and incubation at 37℃ for 1 hour. The mixture was added to pre-seeded MDCK cells and incubated at 37℃ for 1 hour. Subsequently, the medium was replaced with fresh DMEM and further cultured at 37℃ for 24 hours. Virus production in the supernatant was quantified by assessing virus neuraminidase activity on a black opaque 96-well plate (PerkinElmer, 6005270) using a substrate of 20 µM 2'-(4-methylumbelliferyl)-α-D-N-acetylneuraminic acid (MUNANA, Sigma, M8639) dissolved in MES solution [33 mmol/L 2-(N-morpholino) ethanesulfonic acid and 4 mmol/L CaCl2, pH = 6.5]. The reaction mixture was then incubated at 37℃ for an additional period of 2 hours. The reaction was terminated by the addition of a stop solution (0.14 mol/L NaOH in 83% ethanol). Fluorescence intensity was measured using multimode plate readers (Varioskan Lux, Thermoscientific, USA) with an excitation wavelength of 355 nm and an emission wavelength of 485 nm. The relative virus production was determined based on the fluorescence intensity, which correlated to the cleavage of MUNANA by viral neuraminidase. The serum neutralization titer, representing the dilution fold of serum required to achieve 50% virus neutralization, was determined using Graphpad software ([47]).

[4] = stated as reason for selection; no test or reference printed; cited from earlier work

## CNS(=O)(=O)C[C@H]1CC[C@H](N(C)c2ncnc3[nH]ccc23)CC1 [Oclacitinib maleate]
IP-10
  IC50: 180 nM
MCP1
  IC50: 190 nM
Lung tissues
  lung histopathology (HE staining): remained primarily intact, with fewer inflammatory cells present
[1]; BALF flow cytometry, versus placebo
  number of neutrophils and macrophages in the lungs: reduce the number of neutrophils and macrophages
[1]; Fig 4B, 300 TCID50
  Ly6G- (flow cytometry gate, BALF): 81.6
  Macrophage (flow cytometry gate, BALF): 8.05
  Neurophil (flow cytometry gate, BALF): 15.2
[2]
  production of all eight cytokines and chemokines (TNF-α, RANTES, IP-10, IL-10, MIP-1α, IL-8, MCP-1, IL-6) in BALF: significantly reduced
[3]; 7 dpi
  serum influenza virus-specific IgG production: significantly suppressed
[3]; 14 and 21 dpi
  serum influenza virus-specific IgG production: slight suppression
PR8 virus; 14 dpi
  change in neutralization antibody titers compared to untreated mice: slight decrease
  neutralizing antibody titer: 690
PR8 virus; 21 dpi
  change in neutralization antibody titers compared to untreated mice: no difference
  neutralizing antibody titer: 1,087
PR8 virus; 7 dpi
  neutralizing antibody titer: 177
[4]
  water solubility: high water solubility
